Test results published in ChEMBL document CHEMBL6182879, “Synthesis and biological evaluation of novel 4-Arylaminoquinolines derivatives as EGFR/HDAC inhibitors” (Bioorg Med Chem Lett, 2025).

Assay: Cytotoxicity against human 16-HBE cells by CCK8 assay
Conditions: 16hbe14o-

With O=C(CCCCCCC(=O)Nc1ccccc1)NO [VORINOSTAT] the IC50 was 50.6 µM.
